Data on one compound can be found in patent US9084904B2, “Composition for external application” (OTSUKA PHARMACEUTICAL CO., LTD., priority 2008, dated 2015).

This experiment has as its system JB6 CL 41-5A Cell Line, mouse epidermis. Description: Influence of glucose on the intracellular ATP generation-promotion effect of AMP in cultured mouse epidermal cells (ATPlite luminescence). The conditions noted are these: AMP 1 mM, 2 h. Type of experiment: cell-based. An excerpt:
The following reports a test for examining the influence of glucose on the intracellular ATP generation-promotion effect given by AMP. Cultured mouse epidermal cells were used in the test.
Cells: JB6 CL 41-5A Cell Line, mouse epidermis
Culture medium: an MEM medium containing 5% FCS (Fetal Calf Serum)
MEM medium (Nacalai Tesque), Fetal calf serum (GIBCO) AMP: disodium adenosine monophosphate (Yamasa Corporation)
Glucose: D-glucose (Wako Pure Chemical Ind. Ltd.)
ATP measurement: “ATPlite” Luminescence Assay System (Perkin Elmer)
Microplate luminescence reader Anthos Lucy 1 (Aloka Co., Ltd.)
Cultured mouse epidermal cells were inoculated in a 96-well microplate in an amount of 5.8×10^3 cells per well. After two hours, the medium was replaced with another culture medium containing a test sample of a predetermined quantity. After another two hours, the medium was removed, and the amount of ATP was measured.
In the following experiment example, the content of glucose was 100 mg/dL, based on the fact that the normal fasting blood-sugar level of a living body is generally about 70 to 100 mg/dL.
Three concentrations (101, 110, 200 mg/dL) of glucose were added to a normal culture medium (containing 100 mg/dL of glucose) so as to examine how each concentration affects the ATP generation-promotion effect of AMP (1 mM). […] The addition of glucose with a concentration of 110 mg/dL increased ATP generation by 25%, based on the concentration of 100 mg/dL that corresponds to the normal fasting blood-sugar level.
Based on the result of Experiment Example 1, another experiment was performed as follows so as to confirm the influence of the glucose addition on the ATP generation-promotion effect of AMP by ensuring the increase of ATP generation by AMP (1 mM) when the glucose content is 101 mg/dL and 110 mg/dL, and ensuring the decrease of ATP generation by AMP (1 mM) when the glucose content is 200 mg/dL or higher.
A general note: ATP-based viability assays read luminescence as a measure of living cells.

[1] abbreviates: Experiment Example 2, glucose 600 mg/dL.

In the case of `Nc1ncnc2c1ncn2[C@@H]1O[C@H](COP(=O)([O-])[O-])[C@@H](O)[C@H]1O.[Na+].[Na+]` [AMP, disodium adenosine monophosphate], the “increase of ATP generation” value by setting is: (Experiment Example 1, glucose 110 mg/dL, based on 100 mg/dL glucose) 25%; (Experiment Example 2, glucose 101 mg/dL) not below 30%; (Experiment Example 2, glucose 110 mg/dL) not below 30%. For the same compound, the ATP generation result is, setting by setting: (Experiment Example 1, glucose 200 mg/dL) “lower than when the glucose content was 110 mg/dL and AMP was 1 mM”; (Experiment Example 1, glucose content increased from 101 to 110 mg/dL) “ATP generation increased”; (Experiment Example 2, glucose 200 mg/dL) “lower than when the glucose content was 100 mg/dL and AMP was 1 mM”. Further, the “ATP generation compared with AMP-free medium containing 100 mg/dL glucose” value under setting [1] was “not significantly lower”. The “ATP generation-promotion effect of AMP” value under setting [1] is reported as “small”.
